The target in test [1] is T1, Dictyostelium myosin-5b (Dictyostelium discoideum, UniProt P54697).
T1 construct: comprising amino acids 1-698, 1-765, and 1-839 respectively; made in house
In words: Actin-activated ATPase activity (NADH-coupled assay), Dictyostelium myosin-5b. It counts as biochemical. As for the experimental part:
Based on the structure of the myosin-2 motor domain with bound PBP, we performed molecular modeling studies to elucidate the specificity of PBP-binding to myosins from different classes. […] To test the predictions from the modeling studies, we determined actin-activated ATPase activities in the presence of 0 to 150 μM PBP with rabbit skeletal myosin-2 heavy meromyosin (HMM), myosin-5a isolated from chicken brain, and recombinant Dictyostelium myosin class-1, 2 and 5 motor-domain constructs (FIG. 9a). […] The concentrations of PBP required for half-maximal inhibition of the different myosin motors was calculated from fitting the data to hyperbolae. […] To determine the extend to which PBP impairs the coupling between the actin- and nucleotide-binding sites of myosin, we measured the ATP turn-over rates of Dictyostelium myosin-2 and myosin-5b motor domain constructs over the range from 0 to 50 μM F-actin in the absence and presence of 25 μM PBP.
Values for the rate of maximum ATP turnover (kcat), the concentration of F-actin at which half-maximal activation is achieved (Kapp), and the apparent second order rate constant for actin binding (kcat/Kapp) were estimated from a fit of the data to a hyperbolic function. kcat/Kapp is a direct measure of the coupling efficiency between actin and nucleotide binding and can be determined from the initial slope at F-actin concentrations much smaller than Kapp. […] ATP turn-over rates of Dictyostelium myosin-2 (◯) and Dictyostelium myosin-5b (▪) at increasing F-actin concentrations in the absence (filled symbols) and presence (open symbols) of 25 μM pentabromopseudilin (FIG. 9b):
Protein preparation. Rabbit fast skeletal muscle heavy meromyosin (HMM) was prepared as described by Kron and Spudich^9. Motor domain constructs of myosin-1E, myosin-2, and myosin-5b from Dictyostelium discoideum comprising amino acids 1-698, 1-765, and 1-839 respectively, were prepared as described previouslyl^10-12. Myosin-5a heavy meromyosin from chicken brain was provided by Dr. T. Scholz (Hannover Medical School, Germany) and F-actin was prepared as described by Lehrer and Kerwar^13.
Steady-state kinetics. Basal and actin-activated Mg^2+-ATPase activities were measured with the NADH-coupled assay^19 in a buffer containing 25 mM HEPES, 25 mM KCl, and 4 mM MgCl2, 0.5 mM DTT at pH 7.0 in the presence of 1 mM ATP at 25° C. PBP was added to the reaction mixture in the absence of nucleotide and incubated for 20 minutes before the reaction was started by the addition of ATP. NADH oxidation was followed using the change in absorption at 340 nm in a Beckman DU-800 spectrophotometer.

Test [2] deals with myosin-1E (Dictyostelium discoideum, UniProt Q03479). In words: In vitro motility assay (actin filament sliding), myosin-1E. It counts as biochemical. The settings on record: data not shown. As to the method:
The extent and order of isoform-specific differences in the potency of the inhibitor were additionally confirmed by the results of in vitro motility assays). […] (FIG. 11a) Myosin-5a moves actin filaments with an average velocity of 0.6 μm/s±0.05 (dark bars); addition of 10 μM PBP into the same flow cell lead to a 46-fold reduction of the average sliding velocity to 0.013 μm/s±0.002 (light grey bars).
Direct functional Assays. Actin-sliding motility was performed at 25° C. using an Olympus IX81 inverted fluorescence microscope. Experimental flow cells were constructed using bovine serum albumin (0.5 mg/ml in assay buffer)-coated glass slides and nitrocellulose-coated coverslips. Myosins were actin affinity-purified immediately before use, to remove rigor heads^20. Sliding movement was started by adding assay buffer containing 4 mM ATP, 10 mM DTT, 0.5 mg/ml bovine serum albumin, anti-fade solution, and 0.5% methylcellulose to the flow cell. Average sliding velocity was determined from the Gaussian distribution of automatically tracked actin filaments using DiaTrack 3.0 and Origin 7.0.

pKi: −log10 of the molar value. Values joined by “and” are separate entries in the source; they are usually repeats but may differ in a detail not shown here. Identical values can stand only once.

T1 sequence (P54697 1-839): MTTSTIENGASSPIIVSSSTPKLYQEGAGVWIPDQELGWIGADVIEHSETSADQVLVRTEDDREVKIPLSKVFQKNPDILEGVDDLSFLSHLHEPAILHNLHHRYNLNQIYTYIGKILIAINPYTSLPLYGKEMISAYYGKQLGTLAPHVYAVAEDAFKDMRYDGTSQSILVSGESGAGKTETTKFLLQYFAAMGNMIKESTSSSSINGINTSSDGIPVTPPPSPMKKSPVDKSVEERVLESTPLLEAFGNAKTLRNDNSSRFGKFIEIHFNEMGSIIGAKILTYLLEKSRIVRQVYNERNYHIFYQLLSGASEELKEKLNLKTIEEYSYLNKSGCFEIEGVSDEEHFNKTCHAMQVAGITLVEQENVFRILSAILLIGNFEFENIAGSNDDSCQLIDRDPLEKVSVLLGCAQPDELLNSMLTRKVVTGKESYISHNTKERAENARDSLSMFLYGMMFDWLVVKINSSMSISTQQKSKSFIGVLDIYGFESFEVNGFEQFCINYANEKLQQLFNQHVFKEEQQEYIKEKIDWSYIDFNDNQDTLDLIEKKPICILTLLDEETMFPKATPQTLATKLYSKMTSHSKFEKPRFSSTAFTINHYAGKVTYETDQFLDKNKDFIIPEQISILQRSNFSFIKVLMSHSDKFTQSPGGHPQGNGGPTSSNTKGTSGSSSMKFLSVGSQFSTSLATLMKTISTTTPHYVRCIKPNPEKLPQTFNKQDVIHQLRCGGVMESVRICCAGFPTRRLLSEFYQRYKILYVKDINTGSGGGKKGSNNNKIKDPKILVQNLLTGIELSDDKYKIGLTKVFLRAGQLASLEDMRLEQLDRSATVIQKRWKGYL
Sequence of myosin-1E (Q03479 whole entry, canonical isoform): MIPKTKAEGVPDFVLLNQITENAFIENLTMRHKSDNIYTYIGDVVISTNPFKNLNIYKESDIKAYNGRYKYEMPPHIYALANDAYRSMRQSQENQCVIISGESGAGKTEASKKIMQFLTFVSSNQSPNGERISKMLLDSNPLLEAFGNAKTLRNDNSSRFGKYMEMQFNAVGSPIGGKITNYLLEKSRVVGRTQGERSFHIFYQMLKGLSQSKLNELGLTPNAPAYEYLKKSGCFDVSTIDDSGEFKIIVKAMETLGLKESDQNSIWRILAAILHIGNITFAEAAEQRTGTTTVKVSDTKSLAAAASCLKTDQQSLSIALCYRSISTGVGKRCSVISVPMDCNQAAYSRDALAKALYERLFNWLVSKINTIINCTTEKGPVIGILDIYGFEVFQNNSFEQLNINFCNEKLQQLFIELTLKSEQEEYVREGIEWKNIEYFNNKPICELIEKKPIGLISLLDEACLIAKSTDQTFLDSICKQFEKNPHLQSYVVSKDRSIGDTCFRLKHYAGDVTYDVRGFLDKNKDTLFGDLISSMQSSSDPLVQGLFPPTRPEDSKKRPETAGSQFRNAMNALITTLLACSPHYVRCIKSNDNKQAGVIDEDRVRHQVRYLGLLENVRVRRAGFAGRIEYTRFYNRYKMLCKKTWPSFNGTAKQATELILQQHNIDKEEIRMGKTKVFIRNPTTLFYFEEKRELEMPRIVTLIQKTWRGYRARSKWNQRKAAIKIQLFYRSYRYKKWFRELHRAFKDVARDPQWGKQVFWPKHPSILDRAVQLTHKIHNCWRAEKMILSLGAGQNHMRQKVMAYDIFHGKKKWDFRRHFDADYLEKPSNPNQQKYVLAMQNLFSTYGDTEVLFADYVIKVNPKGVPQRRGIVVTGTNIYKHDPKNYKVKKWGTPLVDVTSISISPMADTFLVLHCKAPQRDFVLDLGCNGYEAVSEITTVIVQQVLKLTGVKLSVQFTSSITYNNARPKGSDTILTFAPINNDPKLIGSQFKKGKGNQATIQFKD

With `Oc1c(Br)cc(Br)cc1-c1[nH]c(Br)c(Br)c1Br` [KIN-43], in test [1] (25 μM PBP), the “fold weaker coupling (kcat/Kapp)” value is given as 26 fold. For the same molecule, the “kcat/Kapp (apparent second order rate constant for actin binding)” value in test [1] (25 μM PBP, 0 to 50 μM F-actin, 0.32 without) is 12000 M⁻¹ s⁻¹. The “ATPase activity at 30 μM F-actin in the presence of inhibitor” value in test [1] (>100 μM PBP, 5.5 s^−1 without) is 0.05 s⁻¹. Besides, the pKi in test [1] (Ki, half-maximal inhibition of actin-activated ATPase activity, 0 to 150 μM PBP, hyperbolic fit) is 4.71 and 4.72. Further, in test [1] (class-5 myosins), the “fold decrease in kcat” value is “approximately 8 fold” and the “fold increase in Kapp” value was “more than 25 fold”. Also, the “inhibition of actin filament sliding” value in test [2] is given as “No significant inhibition”.

Values taken from patent US20110105554A1, “MEANS FOR TREATING MYOSIN-RELATED DISEASES” (KINARIS BIOMEDICALS GMBH, priority 2007, published 2011).
